Measured values as given in BindingDB's records for patent US9180116 (Cayman Chemical, 2015).

Experiments:
Conditions in all cases: 37 °C
[1] = target: T1, Prostaglandin E2 receptor EP4 subtype (Rattus norvegicus, UniProt P43114); test: cAMP Assay
[2] = target: Prostaglandin E2 receptor EP2 subtype (Rattus norvegicus, UniProt Q62928); test: SEAP Activity Assay
[3] = target: T1, Prostaglandin E2 receptor EP4 subtype; test: SEAP Activity Assay

T1 sequence (P43114 whole entry): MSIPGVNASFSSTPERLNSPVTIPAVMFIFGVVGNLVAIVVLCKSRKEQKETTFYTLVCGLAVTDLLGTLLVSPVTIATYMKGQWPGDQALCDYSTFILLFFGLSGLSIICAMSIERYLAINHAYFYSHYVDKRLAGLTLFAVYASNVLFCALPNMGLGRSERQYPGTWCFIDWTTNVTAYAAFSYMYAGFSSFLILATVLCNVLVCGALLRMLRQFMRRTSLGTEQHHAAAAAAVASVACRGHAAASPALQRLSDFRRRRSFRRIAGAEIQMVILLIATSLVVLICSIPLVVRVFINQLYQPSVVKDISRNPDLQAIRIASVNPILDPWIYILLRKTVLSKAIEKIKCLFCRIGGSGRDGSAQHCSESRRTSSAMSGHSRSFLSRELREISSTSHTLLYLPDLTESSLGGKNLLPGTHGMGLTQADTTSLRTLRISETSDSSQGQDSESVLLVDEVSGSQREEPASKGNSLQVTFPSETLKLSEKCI
Prostaglandin E2 receptor EP2 subtype, sequence (Q62928 whole entry): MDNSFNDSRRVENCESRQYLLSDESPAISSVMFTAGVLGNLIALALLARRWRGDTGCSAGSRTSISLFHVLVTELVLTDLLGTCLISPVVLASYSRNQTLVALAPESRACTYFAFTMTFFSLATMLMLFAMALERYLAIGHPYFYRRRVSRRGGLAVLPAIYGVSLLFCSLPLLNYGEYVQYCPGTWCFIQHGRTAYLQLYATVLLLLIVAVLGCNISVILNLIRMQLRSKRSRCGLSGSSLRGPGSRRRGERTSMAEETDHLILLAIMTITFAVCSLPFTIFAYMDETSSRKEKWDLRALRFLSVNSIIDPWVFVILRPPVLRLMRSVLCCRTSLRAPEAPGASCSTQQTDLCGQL

Row | EC50 [1] [nM] | EC50 [2] [nM] | EC50 [3] [nM] | Compound
1 | 0.73 | 763 | 0.11 | CCC#CC[C@H](C)[C@H](O)/C=C/[C@H]1CC(F)(F)C(=O)N1CCCc1ccc(C(=O)O)s1 [US9180116, 24D]
2 | 0.15 |  |  | C[C@@H](CCc1ccccc1)[C@H](O)/C=C/[C@H]1CC(F)(F)C(=O)N1CCCc1ccc(C(=O)O)s1 [US9180116, 37C]
3 | 198 | 743 |  | C[C@@H](CCc1ccccc1)[C@@H](O)/C=C/[C@H]1CC(F)(F)C(=O)N1CCCc1ccc(C(=O)O)s1 [US9180116, 37D]
